Experiment [1] relates to mitochondrial protein synthesis (MPS) in H9C2 cells. Nature of the experiment: In vitro assay for MPS inhibition (COX-1 / SDH-A ELISA in H9C2 cells). Type of experiment: cell-based, rat. The note with it: Rattus norvegicus, read-out: IC50 (μM) MPS inhibition.
In experiment [2] the test system is Mycobacterium tuberculosis H37Rv. Nature of the experiment: In vitro assay for antimicrobial susceptibility (microplate Alamar blue, MIC). To be noted: Mycobacterium tuberculosis, read-out: MIC (μg/mL) against H37Rv. Type of experiment: cell-based.
Where [3] appears, read: 120 h, H9C2 cells, 5 days incubation.
Setting [4] is: M. tuberculosis H37Rv, 7H9 broth, Alamar blue.

≈ marks a conversion by molar mass, not a printed value. Like-named read-outs stand apart in the source and are kept apart here.

Take `COC(=O)NC[C@H]1CN(c2ccc(N3CC4(C3)C[S+]([O-])C4)c(F)c2)C(=O)O1` [OTB-256]: the half-maximal inhibitory concentration (IC50) in experiment [1] (setting [3]) was determined as 46 µM. Besides, the MIC in experiment [2] (setting [4]) amounted to 4 µg/mL (≈ 10.1 µM).

For `O=C(NC[C@H]1CN(c2cc(F)c(N3CCCSCC3)c(F)c2)C(=O)O1)C1CC1` [OTB-408], the half-inhibitory concentration (IC50) in experiment [1] (setting [3]) worked out at 3.61 µM. Besides, the MIC in experiment [2] (setting [4]) worked out at 0.342 µg/mL (≈ 0.831 µM).

`COC(=O)NC[C@H]1CN(c2cc(F)c(N3C4CCC3COC4)c(F)c2)C(=O)O1` [OBD-052]: the 50% inhibitory concentration (IC50) in experiment [1] (H9c2, 120 h) worked out at 13 µM. Also, the MIC in experiment [2] (H37RV) was determined as 0.95 µg/mL (≈ 2.39 µM).

For `O=C1O[C@@H](CNc2ccon2)CN1c1cc(F)c(N2CC3(COC3)C2)c(F)c1` [OBD-061], the IC50 in experiment [1] (setting [3]) turned out to be 29 µM. Moreover, in experiment [2] (setting [4]), the MIC was 0.8 µg/mL (≈ 2.04 µM).

For the compound `CC(=O)NC[C@H]1CN(c2ccc(N3CC4CCC(C3)O4)c(F)c2)C(=O)O1` [OBD-110], in experiment [1] (setting [3]), the IC50 came to 7 µM. In addition, the MIC in experiment [2] (setting [4]) turned out to be 0.45 µg/mL (≈ 1.24 µM).

As to `CNC(=O)OC[C@H]1CN(c2ccc(N3CC4(C3)C[S+]([O-])C4)c(F)c2)C(=O)O1` [OTB-260-4B], the half-maximal inhibitory concentration (IC50) in experiment [1] (setting [3]) is > 100 µM. Further, in experiment [2] (H37RV), the MIC stood at 20 µg/mL (≈ 50.3 µM).

On to `O=C1O[C@@H](Cn2cncn2)CN1c1ccc(N2CCC[S+]([O-])CCC2)c(F)c1` [OBD-009, (R)-5-((1H-1,2,4-Triazol-1-yl)methyl)-3-(3-fluoro-4-(1-oxido-1,5-thiazocan-5-yl)phenyl)oxazolidin-2-one], for which the IC50 in experiment [1] (setting [3]) was > 100 µM. Also, the MIC in experiment [2] (setting [4]) stood at 21.1 µg/mL (≈ 51.7 µM).

In the case of `CC(=O)NC[C@H]1CN(c2ccc(N3C4CSCC3C4)c(F)c2)C(=O)O1` [OTB-227, N-(((5S)-3-(4-(3-Thia-6-azabicyclo[3.1.1]heptan-6-yl)-3-fluorophenyl)-2-oxo-oxazolidin-5-yl)methyl)acetamide], in experiment [1] (H9c2, 120 h), the IC50 is 15.2 µM. In addition, the MIC in experiment [2] (H37RV) is 0.889 µg/mL (≈ 2.43 µM).

As to `NC[C@H]1CN(c2cc(F)c(N3C4CCC3C[S+]([O-])C4)c(F)c2)C(=O)O1` (stereo partly shown) [OBD-087], the concentration for half-maximal inhibition (IC50) in experiment [1] (H9c2, 120 h) was > 100 µM. Further, the MIC in experiment [2] (H37RV) worked out at 0.86 µg/mL (≈ 2.32 µM).

With `CCCC(=O)NC[C@H]1CN(c2cc(F)c(N3CC4CCC(C3)O4)c(F)c2)C(=O)O1` [OBD-254], the IC50 in experiment [1] (setting [3]) is 36 µM. For the same compound, the MIC in experiment [2] (setting [4]) was 0.73 µg/mL (≈ 1.78 µM).

As for `CC(=O)NC[C@H]1CN(c2cc(F)c(N3CCCSCC3)c(F)c2)C(=O)O1` [OTB-407, (S)—N-((3-(3,5-Difluoro-4-(1,4-thiazepan-4-yl)phenyl)-2-oxo-oxazolidin-5-yl)methyl)acetamide], the IC50 in experiment [1] (setting [3]) was 3.08 µM. In addition, the MIC in experiment [2] (setting [4]) was found to be 0.097 µg/mL (≈ 0.252 µM).

With `O=C1O[C@@H](Cn2ccnn2)CN1c1cc(F)c(N2CC3(CSC3)C2)c(F)c1` [OTB-245, (R)-5-((1H-1,2,3-Triazol-1-yl)methyl)-3-(3,5-difluoro-4-(2-thia-6-azaspiro[3.3]heptan-6-yl)phenyl)oxazolidin-2-one], the IC50 in experiment [1] (setting [3]) was 25 to 35 µM. The MIC in experiment [2] (setting [4]) lay in the range of 0.03 to 0.5 µg/mL (≈ 0.0763 to 1.27 µM).

With `O=C1O[C@@H](CO)CN1c1ccc(N2CC3(CSC3)C2)c(F)c1` [OTB-260, (R)-3-(3-Fluoro-4-(2-thia-6-azaspiro[3.3]heptan-6-yl)phenyl)-5-(hydroxymethyl)oxazolidin-2-one], the IC50 in experiment [1] (setting [3]) was found to be 30 µM. For the same compound, the MIC in experiment [2] (setting [4]) is 1.49 µg/mL (≈ 4.59 µM).

In the case of `CNC(=O)OC[C@H]1CN(c2ccc(N3CC4(CSC4)C3)c(F)c2)C(=O)O1` [OTB-260-4A], the IC50 in experiment [1] (setting [3]) is > 100 µM. In addition, the MIC in experiment [2] (H37RV) was determined as 0.39 µg/mL (≈ 1.02 µM).

As for `O=C(NC[C@H]1CN(c2ccc(N3CCCSCC3)c(F)c2)C(=O)O1)c1cccs1` [OTB-112, (S)—N-[(3-[3-Fluoro-4-(1,4-thiazepan-4-yl)phenyl]-2-oxo-oxazolidin-5-yl)methyl]thiophene-2-carboxamide], the IC50 in experiment [1] (setting [3]) is > 100 µM. Further, the MIC in experiment [2] (setting [4]) was 0.5 µg/mL (≈ 1.15 µM).

Consider `COC(=O)NC[C@H]1CN(c2ccc(N3CCCSCC3)c(F)c2)C(=O)O1` [OTB-412, Methyl (S)-((3-(3-fluoro-4-(1,4-thiazepan-4-yl)phenyl)-2-oxo-oxazolidin-5-yl)methyl) carbamate], for which the IC50 in experiment [1] (setting [3]) is 10 µM. Further, the MIC in experiment [2] (setting [4]) was 0.199 µg/mL (≈ 0.519 µM).

Consider `CC(=O)NC[C@H]1CN(c2ccc(N3CC4(C3)C[S+]([O-])C4)c(F)c2)C(=O)O1` [OTB-523], for which the IC50 in experiment [1] (setting [3]) was determined as 4 µM. In addition, the MIC in experiment [2] (setting [4]) is 0.5 µg/mL (≈ 1.31 µM).

With `O=C1OC(Cn2ccnn2)CN1c1cc(F)c(N2CC3CCC(C2)O3)c(F)c1` (stereo not shown) [OBD-054, 5-((1H-1,2,3-triazol-1-yl)methyl)-3-(4-(8-oxa-3-aza-bicyclo[3.2.1]octan-3-yl)-3,5-difluorophenyl)oxazolidin-2-one], the IC50 in experiment [1] (setting [3]) was in the range of 6 to 31 µM. In addition, the MIC in experiment [2] (setting [4]) turned out to be 0.5 µg/mL (≈ 1.28 µM).

Regarding `NC[C@H]1CN(c2cc(F)c(N3C4CCC3CSC4)c(F)c2)C(=O)O1` [OBD-083, (5S)-3-(4-(3-thia-8-aza-bicyclo[3.2.1]octan-8-yl)-3,5-difluorophenyl)-5-(aminomethyl)oxazolidin-2-one], the IC50 in experiment [1] (H9c2, 120 h) turned out to be 20 µM. Moreover, the MIC in experiment [2] (H37RV) came out at 0.05 µg/mL (≈ 0.141 µM).

As for `CC(=O)NC[C@H]1CN(c2cc(F)c(N3CC4(C3)C[S+]([O-])C4)c(F)c2)C(=O)O1` [OTB-520], in experiment [1] (setting [3]), the IC50 was 17 µM. In experiment [2] (setting [4]), the MIC is 0.4 µg/mL (≈ 1 µM).

On to `O=C(NC[C@H]1CN(c2ccc(N3CCCSCCC3)c(F)c2)C(=O)O1)c1ccco1` [OTB-117, (S)—N-[[3-(3-Fluoro-4-(1,5-thiazocan-5-yl)phenyl)-2-oxo-oxazolidin-5-yl]methyl]furan-2-carboxamide], for which, in experiment [1] (setting [3]), the IC50 is 56.3 µM. For the same compound, the MIC in experiment [2] (setting [4]) was determined as 0.665 µg/mL (≈ 1.53 µM).

Turning to `COC(=O)NC[C@H]1CN(c2cc(F)c(N3C4CCC3C[S+]([O-])C4)c(F)c2)C(=O)O1` (stereo partly shown) [OTB-519], in experiment [1] (H9c2, 120 h), the IC50 is 51 µM. For the same compound, the MIC in experiment [2] (H37RV) turned out to be 0.9 µg/mL (≈ 2.1 µM).

Turning to `O=C1O[C@@H](Cn2ccnn2)CN1c1ccc(N2CCC[S+]([O-])CCC2)c(F)c1` [OBD-002, (R)-5-((1H-1,2,3-Triazol-1-yl)methyl)-3-(3-fluoro-4-(1-oxido-1,5-thiazocan-5-yl)phenyl)oxazolidin-2-one], the IC50 in experiment [1] (setting [3]) worked out at 29 µM. Besides, the MIC in experiment [2] (setting [4]) was 1.6 µg/mL (≈ 3.93 µM).

For the compound `O=C1O[C@@H](Cn2nccn2)CN1c1ccc(N2CCCSCCC2)c(F)c1` [OTB-113, (R)-5-[(2H-1,2,3-triazol-2-yl)methyl]-3-[3-fluoro-4-(1,5-thiazocan-5-yl)phenyl]oxazolidin-2-one], the IC50 in experiment [1] (setting [3]) was > 100 µM. In addition, in experiment [2] (setting [4]), the MIC was determined as 2 µg/mL (≈ 5.11 µM).

Turning to `CNC(=O)OC[C@H]1CN(c2cc(F)c(N3CC4(CSC4)C3)c(F)c2)C(=O)O1` [OTB-516-4A], in experiment [1] (setting [3]), the half-maximal inhibitory concentration (IC50) is > 100 µM. Moreover, the MIC in experiment [2] (H37RV) turned out to be 0.03 µg/mL (≈ 0.0751 µM).

`O=C(NC[C@H]1CN(c2cc(F)c(N3[C@@H]4CC[C@H]3CSC4)c(F)c2)C(=O)O1)C1CC1` [OTB-508, N—(((S)-3-(4-((1R,5S)-3-Thia-8-aza-bicyclo[3.2.1]octan-8-yl)-3,5-difluorophenyl)-2-oxo-oxazolidin-5-yl)methyl)cyclopropanecarboxamide]: in experiment [1] (H9c2, 120 h), the IC50 was determined as 8 µM. Further, the MIC in experiment [2] (H37RV) came out at 0.2 µg/mL (≈ 0.472 µM).

On to `O=C1O[C@@H](Cn2ccnn2)CN1c1cc(F)c(N2CCCSCC2)c(F)c1` [OTB-411, (R)-5-((1H-1,2,3-triazol-1-yl)methyl)-3-(3,5-difluoro-4-(1,4-thiazepan-4-yl)phenyl)oxazolidin-2-one], for which the IC50 in experiment [1] (setting [3]) came to 8.73 µM. Besides, in experiment [2] (setting [4]), the MIC came out at 0.124 µg/mL (≈ 0.314 µM).

Take `CC(=O)NC[C@H]1CN(c2cc(F)c(N3CC4CCC(C3)O4)c(F)c2)C(=O)O1` [OBD-048]: the IC50 in experiment [1] (setting [3]) is 5 µM. Also, the MIC in experiment [2] (setting [4]) came to 0.39 µg/mL (≈ 1.02 µM).

Regarding `O=C1O[C@@H](CO)CN1c1cc(F)c(N2CC3(CSC3)C2)c(F)c1` [OTB-516, (R)-3-(3,5-Difluoro-4-(2-thia-6-azaspiro[3.3]heptan-6-yl)phenyl)-5-(hydroxymethyl) oxazolidin-2-one], the IC50 in experiment [1] (setting [3]) is 15.3 µM. In addition, in experiment [2] (setting [4]), the MIC was found to be 0.465 µg/mL (≈ 1.36 µM).

Values taken from US11964949B2, “Substituted phenyloxazolidinones for antimicrobial therapy” (priority 2015, dated 2024).
